The values that follow come from patent US20050049241A1, “Pyridyl piperazinyl ureas” (priority 2003, published 2005).

One may read the Ki as the dissociation constant of the complex between target and ligand, obtained from inhibition or displacement. Read a low Ki as higher affinity. As usually defined, the IC50 is the concentration that gives 50% inhibition.

For assay [1], the system named is guinea pigs. The note with it: cough induced by capsaicin and citric acid; cited from earlier work.
Assay [2] relates to guinea pig pain models. The settings on record: guinea pig models of inflammatory and neuropathic pain; cited from earlier work.
Assay [3] has as its target T1, VR1 (Homo sapiens, UniProt Q8NER1). The assay is described as follows: [3H] Resiniferatoxin binding assay on cell membranes. The arrangement: expressed in transfected cells; inferred to be hVR1/HEK293. The settings on record: [3H] RTX displacement, 37° C. 60 min.
Procedure: Resiniferatoxin Binding Assay
Cell membranes were prepared by washing cells with Hank's Balanced Salt Solution. Cells were dissociated with cell dissociation buffer (Sigma), and then centrifuged at 1000×g for 5 min. Cell pellets were homogenized in cold 20 mM HEPES buffer, pH 7.4, containing 5.8 mM NaCl, 320 mM sucrose, 2 mM MgCl2, 0.75 mM CaCl2 and 5 mM KCl and centrifuged at 1000×g for 15 min. The resultant supernatant was then centrifuged at 4000×g for 15 min. The pellet membranes were stored at −80° C. […] Briefly, about 120 μg protein/mL membranes were incubated with the indicated concentration of [^3H] RTX (New England Nuclear) in 0.5 mL of the HEPES buffer (pH 7.4) containing 0.25 mg/mL fat acid free bovine serum albumin at 37° C. for 60 min and then the reaction mixture was cooled to 4° C. α1-Acid glycoprotein (0.1 mg) was added to each sample and was incubated at 4° C. for 15 min. The samples were centrifuged at 18,500 g for 15 min. The tip of the microcentrifuge tube containing the pellets was cut off. The non-specific binding was tested in the presence of 200 nM unlabeled RTX. Bound radioactivity was quantified by scintillation counting. Ki is calculated based on a non-linear regression program (PRISM™ software, GraphPad Software, San Diego, Calif.).
In assay [4] the target is T1, VR1. Kind of assay: Functional assay: block of capsaicin-induced Ca2+ influx (FLIPR, hVR1/HEK293 cells). Type of assay: cell-based. The arrangement: expressed in transfected cells; host or cells: HEK293. As to the method:
Functional assay: block of capsaicin-induced Ca^2+ influx
The contents of the wells were mixed 3 times (40 μL mix volume) immediately after the additions were made.

T1 sequence (Q8NER1 whole entry): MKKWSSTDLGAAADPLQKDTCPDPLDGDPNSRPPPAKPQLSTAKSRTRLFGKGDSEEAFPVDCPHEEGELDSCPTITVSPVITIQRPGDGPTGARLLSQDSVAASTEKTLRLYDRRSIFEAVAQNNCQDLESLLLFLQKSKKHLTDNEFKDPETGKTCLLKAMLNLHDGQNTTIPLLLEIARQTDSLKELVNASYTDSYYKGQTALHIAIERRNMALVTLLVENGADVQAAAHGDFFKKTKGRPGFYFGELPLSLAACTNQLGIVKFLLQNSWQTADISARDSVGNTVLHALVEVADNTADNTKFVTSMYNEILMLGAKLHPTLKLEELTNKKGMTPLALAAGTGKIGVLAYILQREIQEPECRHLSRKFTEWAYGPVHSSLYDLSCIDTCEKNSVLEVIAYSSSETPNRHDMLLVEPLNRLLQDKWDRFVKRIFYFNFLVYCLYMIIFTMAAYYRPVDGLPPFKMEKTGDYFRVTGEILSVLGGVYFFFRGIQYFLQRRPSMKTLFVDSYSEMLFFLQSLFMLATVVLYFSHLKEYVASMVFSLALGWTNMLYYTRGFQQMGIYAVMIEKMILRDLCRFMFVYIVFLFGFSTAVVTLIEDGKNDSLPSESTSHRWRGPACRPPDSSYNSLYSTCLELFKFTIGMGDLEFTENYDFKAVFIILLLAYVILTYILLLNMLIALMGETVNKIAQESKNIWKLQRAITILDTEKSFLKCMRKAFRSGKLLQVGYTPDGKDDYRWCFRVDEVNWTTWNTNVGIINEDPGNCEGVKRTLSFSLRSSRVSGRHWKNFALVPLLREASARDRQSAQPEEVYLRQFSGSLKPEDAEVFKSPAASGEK

Turning to `Oc1cc2c(cc1O)CN(C(=S)NCCc1ccc(Cl)cc1)CCC2` [Capsazepine], the inhibition of cough result in assay [1] was “inhibits cough induced by capsaicin and citric acid”. Moreover, the “reversal of mechanical hyperalgesia” value in assay [2] is “reverses mechanical hyperalgesia”.

For the compound `O=C(Nc1ccc(C(F)(F)F)cn1)N1CCN(c2ncccc2Cl)CC1` [Comparative A, 4-(3-chloro-pyridin-2-yl)-piperazine-1-carboxylic acid (5-trifluoromethyl-pyridin-2-yl)-amide], affinity in assay [3] was put at a Ki of 1020 nM. For the same compound, in assay [4] (block of Ca2+ influx induced by 15 nM capsaicin, hVR1/HEK293, 3 and 60 min incubation data combined), the IC50 turned out to be 120 nM. Consider `COc1cc(CNC(=O)CCCC/C=C/C(C)C)ccc1O` [capsaicin], for which the “capsaicin concentration at ~EC80” value in assay [4] (agonist, human recombinant VR1 in hVR1/HEK293) is on record as approximately 15 nM.
